The record followed here is US3974140A, “Ureidoacetamido-penicillins” (Bayer Aktiengesellschaft, priority 1970, dated 1976).

Common to all, as to experiment: MIC, liquid medium test tube series dilution test
Assay [1] relates to E. coli 14. The format is cell-based. Conditions: E. coli 14, 24 hours, 37°C. The method, then:
(§1) The chemotherapeutic activity of the new penicillins was tested in vivo and in vitro. The in vitro inhibition values (MIC = minimum inhibition concentration (see Tables 1 and 2) were determined in a liquid medium in the test tube series dilution test, with readings being taken after 24 hours' incubation at 37°C. The MIC is indicated by the non-turbid test tube in the dilution series. A complete medium of the following composition was used as the nutrient medium:
(§2) The figures quoted in the Examples for the effectiveness against certain bacteria (units/ml) are minimum inhibitory concentrations in the test tube series dilution test after 24 hours' incubation.

Assay [2] deals with E. coli 183/58. The format is cell-based. Conditions: E. coli 183/58, 24 hours, 37°C. As to the method:
as §1, §2

Assay [3] has as its system E. coli A 261. The format is cell-based. Conditions: E. coli A 261, 24 hours, 37°C. The method, then: as §1, §2
Assay [4] deals with E. coli C 165. The format is cell-based. To be noted: E. coli C 165, 24 hours, 37°C. The method, then:
as §1, §2

Assay [5] concerns Klebsiella 63. The format is cell-based. To be noted: Klebsiella 63, 24 hours, 37°C. As to the method: as §1, §2
The subject of assay [6] is Klebsiella K 10. The format is cell-based. Conditions: Klebsiella K 10, 24 hours, 37°C. As to the method: as §1, §2
Assay [7] relates to Streptoc. faec. ATCC 9790. The format is cell-based. To be noted: Strep. faec. (Enterococcus) ATCC 9790, 24 hours, 37°C. The method, then:
as §1, §2

Assay [8] concerns Proteus vulg. 1017. The format is cell-based, Proteus vulgaris. To be noted: Proteus vulg. 1017, 24 hours, 37°C. As to the method:
as §1, §2

In assay [9] the test system is Proteus vulg. 3400. The format is cell-based, Proteus vulgaris. Conditions: Proteus vulg. 3400, 24 hours, 37°C. The method, then:
as §1, §2

For assay [10], the system named is Psdm. aerug. Bonn. The format is cell-based, Pseudomonas aerug. Conditions: 24 hours, 37°C. As to the method: as §1, §2
Assay [11] concerns Psdm. aerug. Walter. The format is cell-based, Pseudomonas aerug. Conditions: 24 hours, 37°C. The method, then: as §1, §2
In assay [12] the test system is Staph. aureus 133. The format is cell-based, Staphylococcus aureus. Conditions: Staph. aureus 133, 24 hours, 37°C. The method, then:
as §1, §2

With `C=CCN(C(C)=O)C(=O)N[C@@H](C(=O)N[C@@H]1C(=O)N2[C@@H]1SC(C)(C)[C@@H]2C(=O)O)c1ccccc1` [Example 1, Sodium D(-)-α-(3-acetyl-3-allylureido)-benzylpenicillin], the MIC is on record as 25 units/ml in [1]; 100 units/ml in [2]; more than 400 units/ml in assay [3]; 100 units/ml in [4]; 50 units/ml in assay [5]; 50 units/ml in assay [6]. Besides, the MIC in [7] was found to be 200 units/ml; in assay [8], 400 units/ml; in assay [9], 200 units/ml; in [10], 400 units/ml; in assay [11], 200 units/ml; in assay [12] it was 1.6 units/ml.

As to `Cc1ccc(C(NC(=O)N(C)C(=O)c2ccccc2)C(=O)N[C@@H]2C(=O)N3[C@@H]2SC(C)(C)[C@@H]3C(=O)O)cc1` (stereo partly drawn) [Example 4, Sodium D,L-α-(3-benzoyl-3-methyl-ureido)-p-methylbenzyl-penicillin], the MIC in assay [1] is 0.8-4 units/ml; in [2] it was 4-20 units/ml; in assay [3], 100-500 units/ml; in [4] it was 4-20 units/ml; in [5], 20-100 units/ml; in assay [6], 20-100 units/ml. Moreover, the MIC in [7] was 100-500 units/ml; in assay [8], 4-20 units/ml; in assay [9], 4-20 units/ml; in assay [10], 20-100 units/ml; in assay [11], 20-100 units/ml.

On to `CN(C(=O)NC(C(=O)N[C@@H]1C(=O)N2[C@@H]1SC(C)(C)[C@@H]2C(=O)O)c1cccs1)C(=O)c1ccco1` (stereo partly drawn) [Example 22, Sodium D,L-α-(3-[2-furoyl]-3-methyl-ureido)-2-thienylmethylpenicillin], for which the MIC in assay [3] was more than 500 units/ml; in [4], 4-20 units/ml; in assay [5], 20-100 units/ml; in assay [7], ~ 20 units/ml; in assay [9], 4-20 units/ml; in [11], 20-100 units/ml. Besides, the MIC in assay [12] was less than 0.8 units/ml.

Turning to `CN(C)C(=O)N(C)C(=O)NC(C(=O)N[C@@H]1C(=O)N2[C@@H]1SC(C)(C)[C@@H]2C(=O)O)c1cccs1` (stereo partly drawn) [Example 23, Sodium D,L-α-(3-dimethylaminocarbonyl-3-methyl-ureido)-2-thienylmethylpenicillin], the MIC in [3] is more than 500 units/ml; in assay [4], 100-500 units/ml; in assay [5], more than 500 units/ml; in assay [7] it was 100-500 units/ml; in assay [9], more than 500 units/ml; in assay [11] it was more than 500 units/ml. Further, the MIC in [12] is reported as 0.8-4 units/ml.

Take `CC1(C)S[C@@H]2[C@H](NC(=O)C(NC(=O)N3CCNC3=O)c3ccc(Cl)cc3)C(=O)N2[C@H]1C(=O)O` (stereo partly drawn) [Example 48 A, Sodium α-[(imidazolidin-2-on-1-yl)-carbonylamino]-p-chlorobenzylpenicillin]: the MIC in assay [4] (listed as 48 A) is 12,5 units/ml; in assay [5] it was 50 units/ml; in [6], 100 units/ml; in assay [7] (listed as 48 A), 25 units/ml; in [8] (listed as 48 A) it was 25 units/ml; in assay [9] (listed as 48 A), 50 units/ml. For the same compound, in assay [10] (listed as 48 A), the MIC is listed as 25 units/ml.

As for `Cc1noc(C)c1C(=O)N(C)C(=O)N[C@@H](C(=O)N[C@@H]1C(=O)N2[C@@H]1SC(C)(C)[C@@H]2C(=O)O)c1ccccc1` [Example 76], the MIC is recorded as ~ 4 units/ml in assay [2] and less than 0.8 units/ml in [12].

For `COC(=O)N(C)C(=O)N[C@@H](C(=O)N[C@@H]1C(=O)N2[C@@H]1SC(C)(C)[C@@H]2C(=O)O)c1ccccc1` [Example 96, Sodium D(-)-α-(3-methoxycarbonyl-3-methyl-ureido)-benzylpenicillin], the MIC is 6.25 units/ml in [1]; 6.25 units/ml in assay [1] (listed as (B) of Example 10); 25 units/ml in assay [2]; 25 units/ml in assay [2] (listed as (B) of Example 10); 12.5 units/ml in assay [4]; 200 units/ml in [5]. The MIC is on record as 200 units/ml in [5] (listed as (B) of Example 10); 200 units/ml in assay [6]; 200 units/ml in [6] (listed as (B) of Example 10); 25 units/ml in assay [7]; 50 units/ml in [8]; 50 units/ml in assay [9]. In addition, the MIC in assay [10] is recorded as 25 units/ml; in [10] (listed as (B) of Example 10), 25 units/ml; in assay [11], 25 units/ml; in assay [11] (listed as (B) of Example 10), 25 units/ml; in assay [12] it was 1.56 units/ml; in assay [12] (listed as (B) of Example 10), 1.56 units/ml.

As for `CC(C)OC(=O)N(C)C(=O)N[C@@H](C(=O)N[C@@H]1C(=O)N2[C@@H]1SC(C)(C)[C@@H]2C(=O)O)c1ccccc1` [Example 97, Sodium D(-)-α-(3-i-propoxycarbonyl-3-methyl-ureido)-benzylpenicillin], the MIC came out at 6.25 units/ml in assay [1]; 6.25 units/ml in [1] (listed as (B) of Example 11); 6.25 units/ml in assay [2]; 6.25 units/ml in [2] (listed as (B) of Example 11); 25 units/ml in assay [4]; 25 units/ml in assay [4] (listed as (B) of Example 11). Besides, the MIC in [5] is on record as 50 units/ml; in [6] it was 400 units/ml; in assay [8], 25 units/ml; in assay [9], 25 units/ml; in [10], 25 units/ml; in [10] (listed as (B) of Example 11), 25 units/ml. Moreover, the MIC in assay [11] and in assay [11] (listed as (B) of Example 11) was 50 units/ml throughout.

As to `CCN(C(=O)N[C@@H](C(=O)N[C@@H]1C(=O)N2[C@@H]1SC(C)(C)[C@@H]2C(=O)O)c1ccccc1)C(=O)c1ccc(OC)c([N+](=O)[O-])c1` [Example 108, Sodium D(-)-α-(3-[3-nitro-4-methoxy-benzoyl]-3-ethyl-ureido)benzylpenicillin], the MIC is given as more than 500 units/ml in assay [3]; 4-20 units/ml in assay [4]; 100-500 units/ml in [5]; ~ 20 units/ml in [7]; 20-100 units/ml in assay [8]; 0.8-4 units/ml in assay [10]. The MIC in assay [11] is 20-100 units/ml; in assay [12] it was less than 0.8 units/ml.

With `CN(C(=O)N[C@@H](C(=O)N[C@@H]1C(=O)N2[C@@H]1SC(C)(C)[C@@H]2C(=O)O)c1ccccc1)C(=O)c1c(Cl)cccc1Cl` [Example 141, Sodium D(-)-α-(3, o,o'-dichlorobenzoyl-3-methyl-ureido)-benzyl-penicillin], the MIC in [1] was determined as 0.8 units/ml; in assay [2], 1.6 units/ml; in [3] it was 50 units/ml; in assay [4], 3.1 units/ml; in [5], 12.5 units/ml; in assay [6] it was 6.25 units/ml. Further, the MIC in [8] amounted to 3.1 units/ml; in assay [9] it was 3.1 units/ml; in assay [10] it was 12.5 units/ml; in assay [11] it was 6.25 units/ml.

Regarding `CC1(C)S[C@@H]2[C@H](NC(=O)[C@H](NC(=O)NC(=O)c3ccccc3)c3ccccc3)C(=O)N2[C@H]1C(=O)O` [sodium D(-)-α-(3-benzoylureido)benzylpenicillin, reference compound], the MIC in [1] is 6.25 units/ml; in assay [9] it was 50 units/ml; in assay [10], 25 units/ml.
